Results as given in ChEMBL document CHEMBL1133397, “Fused bicyclic Gly-Asp beta-turn mimics with potent affinity for GPIIb-IIIa. Exploration of the arginine isostere” (Bioorg Med Chem Lett, 2000).

What was measured:
[1] = Blood level after a 10 mg/kg oral dose in rat expressed as Cmax was determined; format: ADME, organism-based; design: dose 10 mg/kg, route oral
[2] = Blood level after a 10 mg/kg oral dose in rat expressed as AUC was determined; format: ADME, organism-based; design: dose 10 mg/kg, route oral
[3] = target: Integrin alpha-IIb/beta-3 (Homo sapiens, UniProt P05106+P08514); assay: Inhibition of fibrinogen binding to purified human GPIIb-IIIa in ELISA; format: protein-complex assay
Homo sapiens = species: Homo sapiens; assay: The compound was evaluated for reduction of ADP-induced human platelet aggregation response by 50% using PRP assay; format: functional, organism-based

Sequence of Integrin alpha-IIb/beta-3 (P05106 27-788 limits assumed): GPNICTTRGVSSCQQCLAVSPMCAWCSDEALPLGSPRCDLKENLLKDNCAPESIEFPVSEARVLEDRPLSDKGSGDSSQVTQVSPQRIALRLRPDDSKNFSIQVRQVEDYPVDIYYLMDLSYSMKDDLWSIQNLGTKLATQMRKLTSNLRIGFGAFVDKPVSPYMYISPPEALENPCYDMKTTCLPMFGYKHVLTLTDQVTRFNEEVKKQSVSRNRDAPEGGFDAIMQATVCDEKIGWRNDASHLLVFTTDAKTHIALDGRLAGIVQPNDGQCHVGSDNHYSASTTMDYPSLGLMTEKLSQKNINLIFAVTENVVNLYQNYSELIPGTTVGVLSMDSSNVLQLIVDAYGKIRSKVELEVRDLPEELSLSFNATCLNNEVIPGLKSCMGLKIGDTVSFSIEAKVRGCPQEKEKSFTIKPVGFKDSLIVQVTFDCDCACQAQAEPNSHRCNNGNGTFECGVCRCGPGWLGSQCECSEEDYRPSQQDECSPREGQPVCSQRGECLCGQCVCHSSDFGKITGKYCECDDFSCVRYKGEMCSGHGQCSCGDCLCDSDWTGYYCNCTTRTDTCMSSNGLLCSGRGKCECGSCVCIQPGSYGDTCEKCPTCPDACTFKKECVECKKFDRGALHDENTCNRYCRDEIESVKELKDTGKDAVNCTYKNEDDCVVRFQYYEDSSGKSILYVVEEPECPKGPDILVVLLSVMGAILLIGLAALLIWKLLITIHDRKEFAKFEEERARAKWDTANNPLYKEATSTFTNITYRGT
Sequence of Integrin alpha-IIb/beta-3 (P08514 32-887 limits assumed): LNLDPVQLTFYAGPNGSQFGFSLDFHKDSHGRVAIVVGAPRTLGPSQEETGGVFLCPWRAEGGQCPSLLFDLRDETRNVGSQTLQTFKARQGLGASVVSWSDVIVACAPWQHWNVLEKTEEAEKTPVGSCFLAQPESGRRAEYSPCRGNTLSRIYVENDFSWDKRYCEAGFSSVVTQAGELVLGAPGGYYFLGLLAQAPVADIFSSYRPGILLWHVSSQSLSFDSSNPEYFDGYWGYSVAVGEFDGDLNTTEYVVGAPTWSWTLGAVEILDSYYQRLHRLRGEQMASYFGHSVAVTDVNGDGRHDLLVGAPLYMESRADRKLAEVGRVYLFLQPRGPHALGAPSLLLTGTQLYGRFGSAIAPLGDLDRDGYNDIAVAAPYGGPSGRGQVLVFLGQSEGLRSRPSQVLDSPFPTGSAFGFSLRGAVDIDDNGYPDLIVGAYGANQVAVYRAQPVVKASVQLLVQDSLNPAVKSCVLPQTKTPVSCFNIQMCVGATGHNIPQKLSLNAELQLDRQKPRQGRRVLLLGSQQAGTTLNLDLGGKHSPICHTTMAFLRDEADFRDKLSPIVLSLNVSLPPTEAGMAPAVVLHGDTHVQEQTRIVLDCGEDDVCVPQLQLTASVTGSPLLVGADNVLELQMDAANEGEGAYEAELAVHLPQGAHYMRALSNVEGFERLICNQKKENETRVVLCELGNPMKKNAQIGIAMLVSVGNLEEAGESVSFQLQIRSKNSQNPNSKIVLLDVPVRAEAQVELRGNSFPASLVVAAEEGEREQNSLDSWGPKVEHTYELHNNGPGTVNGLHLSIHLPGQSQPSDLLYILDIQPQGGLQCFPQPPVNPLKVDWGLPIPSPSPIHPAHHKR
Sequence of Integrin alpha-IIb/beta-3 (P08514 891-1039 limits assumed): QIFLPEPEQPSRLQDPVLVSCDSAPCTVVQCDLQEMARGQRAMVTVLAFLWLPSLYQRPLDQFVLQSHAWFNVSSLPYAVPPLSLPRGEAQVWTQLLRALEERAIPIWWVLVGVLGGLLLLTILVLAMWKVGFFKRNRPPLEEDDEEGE

SMILES | Cmax [1] [ng/mL] | AUC [2] [ng·h/mL] | IC50 [3] [nM] | IC50 (Homo sapiens) [nM]
N=C(N)c1ccc(C(=O)Nc2ccc3c(c2)CCC(CC(=O)O)C3=O)cc1 (configuration not stated) | 3630 | 11200 |  | 
N=C(N)c1ccc(C(=O)Nc2ccc3c(c2)CCC(CC(=O)O)C3=O)c(F)c1 (configuration not stated) | 4020 | 11900 | 3 | 100
N=C(N)c1cc(F)c(C(=O)Nc2ccc3c(c2)CCC(CC(=O)O)C3=O)c(F)c1 (configuration not stated) | 2020 | 6410 | 5 | 240
N=C(N)c1ccc(C(=O)Nc2ccc3c(c2)CCC(CC(=O)O)C3=O)c(C(F)(F)F)c1 (configuration not stated) |  |  | 72 | 2000
N=C(N)c1ccc(C(=O)Nc2ccc3c(c2)CCC(CC(=O)O)C3=O)s1 (configuration not stated) |  |  | 210 | 9000
N=C(N)c1ccc(C(=O)Nc2ccc3c(c2)CCC(CC(=O)O)C3=O)c(Cl)c1 (configuration not stated) | 3110 | 10400 |  | 400

Results, then the compound that gave them:

Cmax [1] [ng/mL] | AUC [2] [ng·h/mL] | IC50 [3] [nM] | IC50 (Homo sapiens) [nM] | SMILES
2700 | 8140 | 26 | 360 | O=C(O)CC1CCc2cc(NC(=O)/C=C/C3CCNCC3)ccc2C1=O (configuration not stated)
 |  |  | 18000 | O=C(O)CC1CCc2cc(NC(=O)COC3CCNCC3)ccc2C1=O (configuration not stated)
 |  | 610 | 5500 | O=C(O)CC1CCc2cc(NCCCC3CCNCC3)ccc2C1=O (configuration not stated)
 |  | 71 | 910 | O=C(O)CC1CCc2cc(NC(=O)CCC3CCNCC3)ccc2C1=O (configuration not stated)
1170 | 3560 | 9 | 220 | N=C(N)c1ccc(C(=O)Nc2ccc3c(c2)CCC(CC(=O)O)C3=O)cn1 (configuration not stated)
 |  | 330 | 1800 | O=C(O)CC1CCc2cc(NC(=O)OCC3CCNCC3)ccc2C1=O (configuration not stated)
